Common to all, as to assay type: cell-based
The subject of assay [1] is SJGBM2. Briefly: Cell viability, pediatric glioma SJGBM2.
Assay [2] has as its system DIPG IV. Put plainly: Cell viability, pediatric glioma DIPG IV.
The subject of assay [3] is PN84. Put plainly: Cell viability, adult glioma PN84.
The subject of assay [4] is DIPG 50. Briefly: Cell viability, pediatric glioma DIPG 50.
The subject of assay [5] is DIPG XIII. Put plainly: Cell viability, pediatric glioma DIPG XIII.
In assay [6] the test system is U87. Put plainly: Cell viability, adult glioma U87. The conditions noted are these: Homo sapiens, U-87 MG.
For assay [7], the system named is MGG29. Put plainly: Cell viability, adult glioma MGG29.
Assay [8] relates to PKC (mice). Briefly: Cell viability, pediatric glioma PKC (mice). The conditions noted are these: Mus musculus.
The target of assay [9] is BRD4 (Homo sapiens, UniProt O60885). Put plainly: Rescue of CS-JQ1-induced BRD4 degradation by co-treatment. The conditions noted are these: CS-JQ1 250 nM; BTZ, MLN7243, MLN4924 1 μM, JQ1 10 μM; MCF7 and MDA-MB-231 cells.
In assay [10] the test system is MDA. Briefly: Cell viability, breast cancer cells MDA.
Assay [11] deals with MGG23. Briefly: Cell viability, adult glioma MGG23.
Assay [12] deals with MDA-BR. Put plainly: Cell viability, breast cancer cells MDA-BR.
Assay [13] concerns XFM (mice). Put plainly: Cell viability, pediatric glioma XFM (mice). The conditions noted are these: Mus musculus.
In assay [14] the test system is PHC (mice). Briefly: Cell viability, pediatric glioma PHC (mice). The conditions noted are these: Mus musculus.
For assay [15], the system named is MES83. Put plainly: Cell viability, adult glioma MES83.
Assay [16] has as its system M005 (mice). Briefly: Cell viability, adult glioma M005 (mice). The conditions noted are these: Mus musculus.
Assay [17] has as its system MES236. Put plainly: Cell viability, adult glioma MES236.
The subject of assay [18] is DIPG XIII. Briefly: Cell viability, CS and JQ1 combination, DIPG XIII.
Assay [19] relates to MES83. Briefly: Cell viability, CS and JQ1 combination, MES83.
The test system of assay [20] is DIPG VI. Put plainly: Cell viability, pediatric glioma DIPG VI.
The test system of assay [21] is BT474. Put plainly: Cell viability, breast cancer cells BT474. The conditions noted are these: Homo sapiens, BT-474.

Take `Cc1sc2c(c1C)C(c1ccc(Cl)cc1)=NC(CC(=O)OC(C)(C)C)c1nnc(C)n1-2` (stereo not drawn) [JQ-1]: the IC50 in assay [1] is 1580 nM; in [2], 1520 nM; in assay [3] it was 604 nM; in [4] it was > 10000 nM; in assay [5], > 10000 nM; in assay [6] it was 6950 nM. The IC50 was > 10000 nM in assay [7]; 786 nM in [8]; 6490 nM in [10]; > 10000 nM in [11]; > 10000 nM in assay [12]; > 10000 nM in assay [13]. Further, the 50% inhibitory concentration (IC50) in [14] is 900 nM; in assay [15], 8120 nM; in assay [16], 751 nM; in assay [17], 3680 nM; in assay [18], > 10000 nM; in assay [19], 6380 nM. The IC50 in assay [20] and in [21] was > 10000 nM each time. Moreover, the “Rescue of CS-JQ1-mediated BRD4 degradation by co-treatment” value in assay [9] is on record as “reduced CS-JQ1 degradation efficiency”.

The values are drawn from patent US20250034202A1 (The General Hospital Corporation, priority 2021, published 2025).
